Reference: PMC3952036 (Cellular and molecular life sciences : CMLS, 2014)

Biological target: Flag-DOR (murine DOR tagged with Flag at the N-terminus) (Mus musculus, UniProt P32300)
Sequence (P32300 whole entry): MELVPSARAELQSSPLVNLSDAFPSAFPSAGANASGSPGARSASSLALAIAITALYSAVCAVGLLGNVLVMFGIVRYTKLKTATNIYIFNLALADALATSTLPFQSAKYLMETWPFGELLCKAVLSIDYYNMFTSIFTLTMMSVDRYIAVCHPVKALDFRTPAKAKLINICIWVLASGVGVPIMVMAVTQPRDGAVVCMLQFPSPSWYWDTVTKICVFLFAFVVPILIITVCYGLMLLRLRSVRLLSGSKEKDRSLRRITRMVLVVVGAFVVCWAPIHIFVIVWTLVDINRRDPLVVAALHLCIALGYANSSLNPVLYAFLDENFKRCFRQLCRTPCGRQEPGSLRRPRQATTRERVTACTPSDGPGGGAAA

C=CCN1C[C@H](C)N([C@H](c2ccc(C(=O)N(CC)CC)cc2)c2cccc(OC)c2)C[C@H]1C [SNC-80, (1)-4-[(αR)-α-((2S,5R)-4-allyl-2,5-dimethyl-1-piperazinyl)-3-methoxybenzyl]-N,N-diethylbenzamide]
log KA ± SEM (M): −6.58 ± 0.43 log M
